Assay results reported in US20150329558A1, “FUSED HETEROCYCLIC COMPOUNDS AS ION CHANNEL MODULATORS” (Gilead Sciences, Inc., priority 2011, published 2015).

Key:
[1] = Microsomal stability assay, human; assay type: in vitro ADME; details: metabolic stability, human liver microsomes 0.5 mg/mL, substrate 3 uM
Method: (§1) The micorsomal stability assay is generally performed as follows. Format: 15 compounds (and 1 control verapamil) in 3 different species in duplicate sets Substrate: 3 uM Protein concentration: 0.5 mg/mL (for dog, rat, and human liver microsomes) Cofactor: 1×NADPH-Regenerating system Time-points: 2, 12, 25, 45, and 65 minutes [table] Sample preparation: 25 uL at each timepoint is added to plate with 225 uL quenching solution (50% MeOH, 25% ACN, 25% H2O, and 50 nM […]). After plates are vortexed, centrifuge for 30 minutes. Microsomal solutions: take 400 uL of 20 mg/mL microsomes and add to 13,680 uL 100 mM KPO4 buffer. Using an 8-channel, add 650 uL of this solution to the designated two columns on a short plate. The order should be dog microsomes in columns 1 and 2, rat microsomes in columns 3 and 4, and human microsomes in columns 5 and 6. Keep on ice before use. Place this plate in incubator 1 on the TECAN countertop.

[2] = Microsomal stability assay, dog; assay type: in vitro ADME; details: metabolic stability, dog liver microsomes 0.5 mg/mL, substrate 3 uM
Method: as §1

[3] = molecular target: wild-type human cardiac sodium channel, hNav1.5 (late INa) (Homo sapiens, UniProt Q14524); assay: Late INa screening assay (QPatch whole cell patch clamp); assay type: cell-based; details: percent block of late INa, compound at 1 μM, 10 μM Tefluthrin, HEK293 hNav1.5; read-out: Late INa 1 μM
In short: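 Compounds tested at 1 μM final in extracellular solution against tefluthrin (10 μM)-enhanced late current. Automated patch clamp (23-25° C) on HEK293 expressing alpha subunit alone: −120 mV holding, 250 ms depolarization to −20 mV every 10 s. Read-out is percent inhibition of mean current over 225–250 ms.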

[4] = Microsomal stability assay, rat; assay type: in vitro ADME; details: metabolic stability, rat liver microsomes 0.5 mg/mL, substrate 3 uM
Method: as §1

wild-type human cardiac sodium channel, hNav1.5 (late INa), sequence (Q14524 whole entry): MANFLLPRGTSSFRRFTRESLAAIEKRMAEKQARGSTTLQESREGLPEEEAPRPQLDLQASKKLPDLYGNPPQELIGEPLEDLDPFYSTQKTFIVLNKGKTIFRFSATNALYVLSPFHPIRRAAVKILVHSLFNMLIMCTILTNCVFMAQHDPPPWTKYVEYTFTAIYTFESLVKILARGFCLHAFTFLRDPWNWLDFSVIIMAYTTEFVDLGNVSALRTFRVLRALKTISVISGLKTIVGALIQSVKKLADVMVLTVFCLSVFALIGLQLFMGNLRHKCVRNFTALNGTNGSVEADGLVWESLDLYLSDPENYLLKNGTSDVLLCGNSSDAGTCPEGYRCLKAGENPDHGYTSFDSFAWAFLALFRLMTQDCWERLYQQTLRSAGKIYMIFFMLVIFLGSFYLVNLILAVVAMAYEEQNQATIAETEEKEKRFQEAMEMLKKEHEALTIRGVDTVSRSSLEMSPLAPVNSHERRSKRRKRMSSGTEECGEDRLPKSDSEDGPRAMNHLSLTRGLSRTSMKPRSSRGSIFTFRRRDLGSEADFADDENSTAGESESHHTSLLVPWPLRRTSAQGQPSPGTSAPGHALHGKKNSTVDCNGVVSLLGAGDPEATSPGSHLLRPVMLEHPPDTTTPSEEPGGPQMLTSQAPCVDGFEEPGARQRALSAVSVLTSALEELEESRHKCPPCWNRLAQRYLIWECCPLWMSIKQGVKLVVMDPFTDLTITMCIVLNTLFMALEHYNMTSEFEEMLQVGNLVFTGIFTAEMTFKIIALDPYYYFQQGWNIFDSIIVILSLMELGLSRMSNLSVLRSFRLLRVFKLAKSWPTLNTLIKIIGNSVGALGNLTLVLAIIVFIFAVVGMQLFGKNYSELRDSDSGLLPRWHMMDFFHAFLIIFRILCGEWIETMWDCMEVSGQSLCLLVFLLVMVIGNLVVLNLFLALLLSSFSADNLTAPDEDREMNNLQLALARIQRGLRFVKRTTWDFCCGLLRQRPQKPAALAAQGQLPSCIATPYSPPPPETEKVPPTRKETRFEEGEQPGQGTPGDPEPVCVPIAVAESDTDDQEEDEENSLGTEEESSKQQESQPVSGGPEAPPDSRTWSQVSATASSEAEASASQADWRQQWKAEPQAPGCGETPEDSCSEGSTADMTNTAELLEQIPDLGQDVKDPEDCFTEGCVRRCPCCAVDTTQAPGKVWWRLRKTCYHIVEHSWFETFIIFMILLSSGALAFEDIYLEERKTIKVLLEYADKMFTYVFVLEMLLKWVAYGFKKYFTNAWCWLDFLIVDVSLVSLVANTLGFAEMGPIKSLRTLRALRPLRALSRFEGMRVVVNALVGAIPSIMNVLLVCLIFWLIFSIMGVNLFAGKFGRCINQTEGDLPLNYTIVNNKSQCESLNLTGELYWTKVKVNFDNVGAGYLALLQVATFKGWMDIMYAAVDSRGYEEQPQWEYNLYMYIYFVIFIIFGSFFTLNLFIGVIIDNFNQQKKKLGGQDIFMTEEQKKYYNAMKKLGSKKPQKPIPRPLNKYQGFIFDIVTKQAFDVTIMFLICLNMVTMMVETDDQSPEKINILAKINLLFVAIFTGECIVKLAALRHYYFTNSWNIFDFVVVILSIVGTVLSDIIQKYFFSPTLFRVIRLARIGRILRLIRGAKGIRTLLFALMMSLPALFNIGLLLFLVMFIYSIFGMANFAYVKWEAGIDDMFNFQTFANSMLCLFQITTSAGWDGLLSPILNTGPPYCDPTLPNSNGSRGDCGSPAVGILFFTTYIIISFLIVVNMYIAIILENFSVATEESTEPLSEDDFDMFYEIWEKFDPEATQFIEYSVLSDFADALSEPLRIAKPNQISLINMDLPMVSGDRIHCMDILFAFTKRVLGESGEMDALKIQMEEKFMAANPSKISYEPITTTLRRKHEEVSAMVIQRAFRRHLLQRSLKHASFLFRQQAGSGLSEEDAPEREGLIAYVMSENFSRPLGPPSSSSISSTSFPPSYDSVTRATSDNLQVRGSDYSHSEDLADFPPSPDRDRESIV

| MS Human THalf [1] | MS Dog THalf [2] | MS Rat THalf [4] | SMILES | inhibition at 1 µM [3] |
| --- | --- | --- | --- | --- |
| 9 min | 5 min | 11 min | O=c1c2cc(-c3cnc(N4CCCCC4)nc3)ccc2nnn1CCOc1ncccn1 [Compound V-12, 6-(2-(piperidin-1-yl)pyrimidin-5-yl)-3-(2-(pyrimidin-2-yloxy)ethyl)benzo[d][1,2,3]triazin-4(3H)-one] | 26% |
| 164 min | 123 min | 144 min | Cc1nc(Cn2nnc3ccc(-c4ccc(OC(F)(F)F)cc4)cc3c2=O)no1 [II-6, 3-((5-methyl-1,2,4-oxadiazol-3-yl)methyl)-6-(4-(trifluoromethoxy)phenyl)benzo[d][1,2,3]triazin-4(3H)-one] | 43% |
| 10 min | 4 min | 10 min | Cc1noc(Cn2nnc3ccc(-c4ccc(Oc5ccccc5)cc4)cc3c2=O)n1 [II-7, 3-((3-methyl-1,2,4-oxadiazol-5-yl)methyl)-6-(4-phenoxyphenyl)benzo[d][1,2,3]triazin-4(3H)-one] | 75% |
| 149 min | 36 min | 25 min | O=c1c2cc(-c3ccc(OC(F)(F)F)cc3)ccc2nnn1CCn1cccn1 [II-13, 3-(2-(1H-pyrazol-1-yl)ethyl)-6-(4-(trifluoromethoxy)phenyl)benzo[d][1,2,3]triazin-4(3H)-one] | 67% |
| 33 min | 23 min | 19 min | O=c1c2cc(-c3ccc(OC(F)(F)F)cc3)ccc2nnn1CCc1ccccn1 [II-15, 3-(2-(pyridin-2-yl)ethyl)-6-(4-(trifluoromethoxy)phenyl)benzo[d][1,2,3]triazin-4(3H)-one] | 71% |
| 74 min | 31 min | 102 min | Cc1noc(Cn2nnc3ccc(-c4ccc(Oc5ccc(Cl)cc5)cc4)cc3c2=O)n1 [II-16, 6-(4-(4-chlorophenoxyl)phenyl)-3-((3-methyl-1,2,4-oxadiazol-5-yl)methyl)benzo[d][1,2,3]triazin-4(3H)-one] | 76% |
| 28 min | 80 min | 16 min | O=C(Cn1nnc2ccc(-c3ccc(OC(F)(F)F)cc3)cc2c1=O)N1CCN(c2ncccn2)CC1 [II-41, 3-(2-oxo-2-(4-(pyrimidin-2-yl)piperazin-1-yl)ethyl)-6-(4-(trifluoromethoxy)phenyl)benzo[d][1,2,3]triazin-4(3H)-one] | 25% |
| 165 min | 159 min | 49 min | N#CC1(c2ccc(-c3ccc4nnn(CCOc5ncccn5)c(=O)c4c3)cc2)CC1 [II-50, 1-(4-(4-oxo-3-(2-(pyrimidin-2-yloxy)ethyl)-3,4-dihydrobenzo[d][1,2,3]triazin-6-yl)phenyl)cyclopropanecarbonitrile] | 30% |
| > 395 min | 93 min | 197 min | N#Cc1cnc(OCCn2nnc3ccc(-c4ccc(OC(F)(F)F)cc4)cc3c2=O)nc1 [II-51, 2-(2-(4-oxo-6-(4-(trifluoromethoxy)phenyl)benzo[d][1,2,3]triazin-3(4H)-yl)ethoxy)pyrimidine-5-carbonitrile] | 35% |
| 319 min | 76 min | 118 min | O=c1c2cc(-c3ccc(OC(F)(F)F)cc3)ccc2nnn1CCn1ccc(C(F)(F)F)n1 [II-52, 6-(4-(trifluoromethoxy)phenyl)-3-(2-(3-(trifluoromethyl)-1H-pyrazol-1-yl)ethyl)benzo[d][1,2,3]triazin-4(3H)-one] | 32% |
| > 395 min | 646 min | > 395 min | CC(c1nc(-c2ncccn2)no1)n1nnc2ccc(-c3ccc(OC(F)(F)F)cc3)cc2c1=O (stereo not drawn) [II-53, 3-(1-(3-(pyrimidin-2-yl)-1,2,4-oxadiazol-5-yl)ethyl)-6-(4-(trifluoromethoxy)phenyl)benzo[d][1,2,3]triazin-4(3H)-one] | 29% |
| 2 min | 4 min | 2 min | CCc1nccn1CC1(Cn2nnc3ccc(-c4ccc(OC(F)(F)F)cc4)cc3c2=O)CC1 [II-57, 3-((1-((2-ethyl-1H-imidazol-1-yl)methyl)cyclopropyl)methyl)-6-(4-(trifluoromethoxy)phenyl)benzo[d][1,2,3]triazin-4(3H)-one] | 38% |
| 75 min | 78 min | 94 min | O=c1c2cc(-c3ccc(OC(F)(F)F)cc3)ccc2nnn1C1CCN(CC(F)(F)F)CC1 [II-71, 3-(1-(2,2,2-trifluoroethyl)piperidin-4-yl)-6-(4-(trifluoromethoxy)phenyl)benzo[d][1,2,3]triazin-4(3H)-one] | 25% |
| 11 min | 6 min | 8 min | CCOC(=O)N1CCC(=O)C(n2nnc3ccc(-c4ccc(OC(F)(F)F)cc4)cc3c2=O)C1 (stereo not drawn) [II-72, ethyl 4-oxo-3-(4-oxo-6-(4-(trifluoromethoxy)phenyl)benzo[d][1,2,3]triazin-3(4H)-yl)piperidine-1-carboxylate] | 31% |
| 107 min | 98 min | 51 min | CC(C)(COc1ncccn1)Cn1nnc2ccc(-c3ccc(OC(F)(F)F)cc3)cc2c1=O [II-84, 3-(2,2-dimethyl-3-(pyrimidin-2-yloxy)propyl)-6-(4-(trifluoromethoxy)phenyl)benzo[d][1,2,3]triazin-4(3H)-one] | 34% |
| 31 min | 34 min | 16 min | O=c1c2cc(-c3ccc(OC(F)(F)F)cc3)ccc2nnn1Cc1coc(C2CCC2)n1 [II-98, 3((2-cyclobutyloxazol-4-yl)methyl)-6-(4-(trifluoromethoxy)phenyl)benzo[d][1,2,3]triazin-4(3H)-one] | 41% |
| > 395 min | 122 min | 104 min | Cc1nc(Cn2ncc3ccc(-c4ccc(OC(F)(F)F)cc4)cc3c2=O)no1 [III-3, 2-((5-methyl-1,2,4-oxadiazol-3-yl)methyl)-7-(4-(trifluoromethoxy)phenyl)phthalazin-1(2H)-one] | 42% |
| 41 min | 18 min | 18 min | O=c1c2cc(-c3ccc(OC(F)(F)F)cc3)ccc2cnn1CCn1cccc1 [III-10, 2-(2-(1H-pyrrol-1-yl)ethyl)-7-(4-(trifluoromethoxy)phenyl)phthalazin-1(2H)-one] | 33% |
| 251 min | 77 min | 55 min | O=c1c2cc(-c3ccc(OC(F)(F)F)cc3)ccc2cnn1Cc1cccnc1Br [III-14, 2-((2-bromopyridin-3-yl)methyl)-7-(4-(trifluoromethoxy)phenyl)phthalazin-1 (2H)-one] | 39% |
| 34 min | 28 min | 22 min | Cc1ccn(CCn2ncc3ccc(-c4ccc(OC(F)(F)F)cc4)cc3c2=O)n1 [III-17, 2-(2-(3-methyl-1H-pyrazol-1-yl)ethyl)-7-(4-(trifluoromethoxy)phenyl)phthalazin-1 (2H)-one] | 49% |
| 25 min | 23 min | 20 min | Cc1cccc(CCn2ncc3ccc(-c4ccc(OC(F)(F)F)cc4)cc3c2=O)n1 [III-18, 2-(2-(6-methylpyridin-2-yl)ethyl)-7-(4-(trifluoromethoxy)phenyl)phthalazin-1 (2H)-one] | 37% |
| 41 min | 61 min | 54 min | O=c1c2cc(-c3ccc(OC(F)(F)F)cc3)ccc2cnn1Cc1cccnc1C1CC1 [III-20] | 28% |
| 252 min | 191 min | 86 min | Cc1cc(C)nc(Cn2ncc3ccc(-c4ccc(OC(F)(F)F)cc4)cc3c2=O)n1 [III-22] | 35% |
| 13 min | 18 min | 9 min | Cc1cc(C)n(CCn2ncc3ccc(-c4ccc(OC(F)(F)F)cc4)cc3c2=O)n1 [III-24, 2-(2-(3,5-dimethyl-1H-pyrazol-1-yl)ethyl)-7-(4-(trifluoromethoxy)phenyl)phthalazin-1 (2H)-one] | 28% |
| 50 min | 46 min | 41 min | COc1ncc(-c2cnn(CCn3ncc4ccc(-c5ccc(OC(F)(F)F)cc5)cc4c3=O)c2)cn1 [III-34, 2-(2-(4-(2-methoxypyrimidin-5-yl)-1H-pyrazol-1-yl)ethyl)-7-(4-(trifluoromethoxy)phenyl)phthalazin-1 (2H)-one] | – |
